One experiment has as its system NK-2 receptors. The experiment in a line: Antagonism for NK-2 receptors (neurokinin A induced contraction of isolated trachea). The class given is cell-based, Hartley strain male guinea pigs. Particulars: concentration 5 × 10^-9 M; neurokinin A 1×10^-9 M; guinea pig trachea; 110 min incubation. As for the experimental part:
Hartley strain male guinea pigs were killed by a blow on the head and blood-letting, and the tracheas were isolated. Specimens each composed of five slices of the trachea were prepared, and suspended at a tension of 0.5 gw in a magunus bath with an internal volume of 15 ml containing Krebs-Henseleit solution of 37° C. while introducing a mixed gas of 95% O2 +5% CO2 into the bath. As the Krebs-Henseleit solution, that containing indomethacin ([…]) was used for preventing the participation of intrinsic prostaglandins. After confirming the maximum degree of contraction of each specimen by the use of methacholine,a drug or a solvent therefor was added to the solution, followed by incubation for 110 minutes, and neurokinin A (1×10^-9 M) was allowed to act on the specimen. Phosphoramidon (1×10^-5 M) for inhibiting the degradation of neurokinin A and (±)CP-96345 (3×10^-7 M) for preventing the participation of NK-1 receptors were added 30 minutes and 20 minutes, respectively, before the addition of neurokinin A. The degree of contraction due to neurokinin A was converted to the percentage based on the maximum degree of contraction of the specimen, and then the rate of inhibition by the drug was determined relative to the percentage of contraction of the other specimen used in the case of adding the solvent.

The target in the next experiment is T1, NK-1 receptors (Cavia porcellus, UniProt P30547).
T1 construct: the ileums were isolated; from tissue; host or cells: isolated ileum of male Hartley guinea pigs
T1 sequence (P30547 whole entry): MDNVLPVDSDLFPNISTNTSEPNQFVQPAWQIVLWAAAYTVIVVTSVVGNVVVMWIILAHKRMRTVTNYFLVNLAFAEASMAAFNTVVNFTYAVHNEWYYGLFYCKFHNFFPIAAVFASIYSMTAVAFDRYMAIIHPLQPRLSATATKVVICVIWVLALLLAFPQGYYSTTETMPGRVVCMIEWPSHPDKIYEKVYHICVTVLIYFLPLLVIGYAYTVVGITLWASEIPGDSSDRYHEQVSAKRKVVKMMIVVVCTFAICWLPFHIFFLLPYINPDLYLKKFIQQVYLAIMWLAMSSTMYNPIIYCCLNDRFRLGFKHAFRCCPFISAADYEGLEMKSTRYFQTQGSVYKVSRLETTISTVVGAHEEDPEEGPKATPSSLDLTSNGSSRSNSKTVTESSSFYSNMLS
In words: Antagonism for NK-1 receptor (methylsubstance P induced contraction of isolated ileum). The settings on record: guinea pig ileum; methylsubstance P 1×10^-9 M; 35 min incubation; read-out: IC50 of a drug on methylsubstance P induced contraction. The class given is cell-based, Hartley strain male guinea pigs. The method, then:
Hartley strain male guinea pigs were killed by a blow on the head and blood-letting, and the ileums were isolated. A specimen of about 3 cm in length was prepared and then suspended at a tension of 0.5 gw in a 15 magunus bath with an internal volume of 15 ml containing Krebs-Henseleit solution of 37° C. while introducing a mixed gas of 95% O2 +5% CO2 into the bath. As the Krebs-Henseleit solution, that containing atropine (1×10^-6 M) and indomethacin (5×10^-6 M) was used for preventing the participation of intrinsic acetylcholine and prostaglandins. Methylsubstance P (1×10^-9 M), a specific stimulating agent for NK-1 receptors were repeatedly allowed to act on the specimen at intervals of 40 minutes. After the percentage of contraction due to methylsubstance P became constant, a drug was added to the solution to each of various concentrations, followed by incubation for 35 minutes, and methyl-substance P was allowed to act on the specimen again. The rate of inhibition by the drug was determined relative to the percentage of contraction immediately before the addition of the drug, and the 50% inhibitory concentration (IC50) of the drug was determined by means of a regression line.

Structures can show the parent of a compound that is named as a salt.

Turning to `CN(CC(CCN1CCc2nc3c(cc2C1)CCCC3)c1ccc(Cl)c(Cl)c1)C(=O)c1ccccc1` (single isomer, unassigned) [Example 25, 2-[(-)-4-(N-benzoyl-N-methyl)amino-3-(3,4-dichlorophenylbutyll-1,2,3,4,6,7,8,9-octahydro-benzo[b][1,6]naphthyridine fumarate], in the experiment with NK-2 receptors, the “Inhibition rate, neurokinin A induced contraction” value is reported as 89.1%. Further, at NK-1 receptors, the IC50 came to 470 nM.

In general, IC50 refers to the concentration at which inhibition is half-maximal.

The values above are taken from patent US6294547A, “Naphthyridine deratives or salts thereof” (Nippon Kayaku Kabushiki Kaisha, priority 1997, dated 2001).
